Reference: the NIST ThermoML archive (doi:10.1016/j.fluid.2010.10.028)

Experiment: xn = mol fraction of the nth substance listed
Conditions: Liquid, Vibrating tube method

CC(C)=O [acetone] + CCCCCCC
Conditions	mass density [kg/m3]
337.69 K, 970 kPa, x1 = 0.801	700.39
337.69 K, 4850 kPa, x1 = 0.801	706.05
337.69 K, 9830 kPa, x1 = 0.7024	699.81
337.69 K, 9840 kPa, x1 = 0.492	680.33
337.69 K, 9870 kPa, x1 = 0.801	712.82
337.69 K, 14820 kPa, x1 = 0.7024	705.98
337.69 K, 14860 kPa, x1 = 0.801	719.01
337.69 K, 14870 kPa, x1 = 0.492	686.47
337.69 K, 19850 kPa, x1 = 0.801	724.74
337.69 K, 19870 kPa, x1 = 0.492	692.06
337.69 K, 24790 kPa, x1 = 0.7024	717.01
337.69 K, 24840 kPa, x1 = 0.492	697.27
337.69 K, 24840 kPa, x1 = 0.801	730.15
337.69 K, 29870 kPa, x1 = 0.492	702.18
337.69 K, 39870 kPa, x1 = 0.7024	731.35
337.69 K, 49840 kPa, x1 = 0.801	752.9
337.69 K, 64830 kPa, x1 = 0.801	764.19
337.69 K, 84730 kPa, x1 = 0.7024	763.81
337.69 K, 89820 kPa, x1 = 0.7024	766.84
337.69 K, 94820 kPa, x1 = 0.7024	769.76
337.69 K, 99820 kPa, x1 = 0.7024	772.57
337.69 K, 104830 kPa, x1 = 0.7024	775.31
337.69 K, 109800 kPa, x1 = 0.7024	777.96
337.69 K, 114820 kPa, x1 = 0.7024	780.54
337.69 K, 119800 kPa, x1 = 0.7024	783.06
337.69 K, 124820 kPa, x1 = 0.7024	785.53
337.69 K, 129820 kPa, x1 = 0.7024	787.95
337.7 K, 930 kPa, x1 = 0.7024	687.32
337.7 K, 960 kPa, x1 = 0.492	668.07
337.7 K, 4830 kPa, x1 = 0.7024	693.05
337.7 K, 4860 kPa, x1 = 0.611	683.33
337.7 K, 4870 kPa, x1 = 0.492	673.74
337.7 K, 9860 kPa, x1 = 0.611	690.06
337.7 K, 14890 kPa, x1 = 0.611	696.23
337.7 K, 19800 kPa, x1 = 0.7024	711.67
337.7 K, 19850 kPa, x1 = 0.611	701.87
337.7 K, 24870 kPa, x1 = 0.611	707.18
337.7 K, 29860 kPa, x1 = 0.611	712.16
337.7 K, 29890 kPa, x1 = 0.7024	722.13
337.7 K, 34850 kPa, x1 = 0.492	706.79
337.7 K, 34850 kPa, x1 = 0.611	716.83
337.7 K, 34850 kPa, x1 = 0.801	739.96
337.7 K, 34880 kPa, x1 = 0.7024	726.85
337.7 K, 39850 kPa, x1 = 0.492	711.17
337.7 K, 39860 kPa, x1 = 0.611	721.28
337.7 K, 39860 kPa, x1 = 0.801	744.5
337.7 K, 44850 kPa, x1 = 0.7024	735.58
337.7 K, 44850 kPa, x1 = 0.801	748.79
337.7 K, 44860 kPa, x1 = 0.611	725.53
337.7 K, 49840 kPa, x1 = 0.7024	739.64
337.7 K, 49850 kPa, x1 = 0.611	729.53
337.7 K, 49860 kPa, x1 = 0.492	719.29
337.7 K, 54830 kPa, x1 = 0.611	733.35
337.7 K, 54830 kPa, x1 = 0.7024	743.51
337.7 K, 54850 kPa, x1 = 0.492	723.05
337.7 K, 54850 kPa, x1 = 0.801	756.81
337.7 K, 59810 kPa, x1 = 0.7024	747.21
337.7 K, 59840 kPa, x1 = 0.801	760.56
337.7 K, 59850 kPa, x1 = 0.492	726.67
337.7 K, 59940 kPa, x1 = 0.611	737.16
337.7 K, 64800 kPa, x1 = 0.7024	750.79
337.7 K, 64840 kPa, x1 = 0.492	730.12
337.7 K, 64920 kPa, x1 = 0.611	740.68
337.7 K, 69780 kPa, x1 = 0.7024	754.21
337.7 K, 69840 kPa, x1 = 0.4	783.77
337.7 K, 69840 kPa, x1 = 0.8992	783.77
337.7 K, 69910 kPa, x1 = 0.611	744.03
337.7 K, 69930 kPa, x1 = 0.801	767.73
337.7 K, 74900 kPa, x1 = 0.611	747.3
337.7 K, 74910 kPa, x1 = 0.801	771.08
337.7 K, 79880 kPa, x1 = 0.611	750.44
337.7 K, 79880 kPa, x1 = 0.801	774.31
337.7 K, 84860 kPa, x1 = 0.611	753.48
337.7 K, 84870 kPa, x1 = 0.801	777.45
337.7 K, 89840 kPa, x1 = 0.611	756.41
337.7 K, 99810 kPa, x1 = 0.801	786.3
337.7 K, 109780 kPa, x1 = 0.801	791.8
337.7 K, 114850 kPa, x1 = 0.801	794.44
337.7 K, 119850 kPa, x1 = 0.611	772.4
337.7 K, 119860 kPa, x1 = 0.801	797.03
337.71 K, 950 kPa, x1 = 0.611	677.6
337.71 K, 1150 kPa, x1 = 0.4	716.73
337.71 K, 1150 kPa, x1 = 0.8992	716.73
337.71 K, 5000 kPa, x1 = 0.4	722.27
337.71 K, 5000 kPa, x1 = 0.8992	722.27
337.71 K, 9990 kPa, x1 = 0.4	728.91
337.71 K, 9990 kPa, x1 = 0.8992	728.91
337.71 K, 14960 kPa, x1 = 0.4	735.03
337.71 K, 14960 kPa, x1 = 0.8992	735.03
337.71 K, 19960 kPa, x1 = 0.4	740.75
337.71 K, 19960 kPa, x1 = 0.8992	740.75
337.71 K, 24950 kPa, x1 = 0.4	746.11
337.71 K, 24950 kPa, x1 = 0.8992	746.11
337.71 K, 29870 kPa, x1 = 0.801	735.19
337.71 K, 29930 kPa, x1 = 0.4	751.13
337.71 K, 29930 kPa, x1 = 0.8992	751.13
337.71 K, 34930 kPa, x1 = 0.4	755.89
337.71 K, 34930 kPa, x1 = 0.8992	755.89
337.71 K, 39920 kPa, x1 = 0.4	760.43
337.71 K, 39920 kPa, x1 = 0.8992	760.43
337.71 K, 44840 kPa, x1 = 0.492	715.3
337.71 K, 49900 kPa, x1 = 0.4	768.86
337.71 K, 49900 kPa, x1 = 0.8992	768.86
337.71 K, 54890 kPa, x1 = 0.4	772.81
337.71 K, 54890 kPa, x1 = 0.8992	772.81
337.71 K, 64860 kPa, x1 = 0.4	780.28
337.71 K, 64860 kPa, x1 = 0.8992	780.28
337.71 K, 69930 kPa, x1 = 0.492	733.51
337.71 K, 74770 kPa, x1 = 0.7024	757.51
337.71 K, 74840 kPa, x1 = 0.4	787.15
337.71 K, 74840 kPa, x1 = 0.8992	787.15
337.71 K, 74910 kPa, x1 = 0.492	736.73
337.71 K, 79750 kPa, x1 = 0.7024	760.71
337.71 K, 79820 kPa, x1 = 0.4	790.43
337.71 K, 79820 kPa, x1 = 0.8992	790.43
337.71 K, 79900 kPa, x1 = 0.492	739.82
337.71 K, 84890 kPa, x1 = 0.492	742.8
337.71 K, 89860 kPa, x1 = 0.801	780.47
337.71 K, 89870 kPa, x1 = 0.492	745.68
337.71 K, 94760 kPa, x1 = 0.4	799.66
337.71 K, 94760 kPa, x1 = 0.8992	799.66
337.71 K, 94820 kPa, x1 = 0.611	759.24
337.71 K, 94840 kPa, x1 = 0.492	748.47
337.71 K, 94840 kPa, x1 = 0.801	783.46
337.71 K, 99730 kPa, x1 = 0.4	802.55
337.71 K, 99730 kPa, x1 = 0.8992	802.55
337.71 K, 99820 kPa, x1 = 0.492	751.17
337.71 K, 104700 kPa, x1 = 0.4	805.37
337.71 K, 104700 kPa, x1 = 0.8992	805.37
337.71 K, 104790 kPa, x1 = 0.611	764.72
337.71 K, 104800 kPa, x1 = 0.492	753.81
337.71 K, 104800 kPa, x1 = 0.801	789.1
337.71 K, 109680 kPa, x1 = 0.4	808.11
337.71 K, 109680 kPa, x1 = 0.8992	808.11
337.71 K, 109770 kPa, x1 = 0.492	756.37
337.71 K, 109850 kPa, x1 = 0.611	767.36
337.71 K, 114650 kPa, x1 = 0.4	810.79
337.71 K, 114650 kPa, x1 = 0.8992	810.79
337.71 K, 114850 kPa, x1 = 0.492	758.9
337.71 K, 114860 kPa, x1 = 0.611	769.89
337.71 K, 119620 kPa, x1 = 0.4	813.4
337.71 K, 119620 kPa, x1 = 0.8992	813.4
337.71 K, 119840 kPa, x1 = 0.492	761.32
337.71 K, 124840 kPa, x1 = 0.492	763.7
337.71 K, 124850 kPa, x1 = 0.801	799.52
337.71 K, 129550 kPa, x1 = 0.4	818.42
337.71 K, 129550 kPa, x1 = 0.8992	818.42
337.71 K, 129840 kPa, x1 = 0.801	801.97
337.71 K, 129850 kPa, x1 = 0.492	766
337.72 K, 44910 kPa, x1 = 0.4	764.73
337.72 K, 44910 kPa, x1 = 0.8992	764.73
337.72 K, 59870 kPa, x1 = 0.4	776.58
337.72 K, 59870 kPa, x1 = 0.8992	776.58
337.72 K, 84800 kPa, x1 = 0.4	793.6
337.72 K, 84800 kPa, x1 = 0.8992	793.6
337.72 K, 89780 kPa, x1 = 0.4	796.66
337.72 K, 89780 kPa, x1 = 0.8992	796.66
337.72 K, 99810 kPa, x1 = 0.611	762.02
337.72 K, 124590 kPa, x1 = 0.4	815.94
337.72 K, 124590 kPa, x1 = 0.8992	815.94
337.72 K, 124870 kPa, x1 = 0.611	774.78
337.72 K, 129860 kPa, x1 = 0.611	777.16
347.61 K, 960 kPa, x1 = 0.7024	676.19
347.61 K, 4840 kPa, x1 = 0.7024	682.43
347.61 K, 9820 kPa, x1 = 0.7024	689.72
347.61 K, 14820 kPa, x1 = 0.7024	696.37
347.61 K, 19810 kPa, x1 = 0.7024	702.46
347.61 K, 24790 kPa, x1 = 0.7024	708.14
347.61 K, 29890 kPa, x1 = 0.7024	713.58
347.61 K, 34890 kPa, x1 = 0.7024	718.57
347.61 K, 39880 kPa, x1 = 0.7024	723.29
347.61 K, 44870 kPa, x1 = 0.7024	727.75
347.61 K, 49860 kPa, x1 = 0.7024	731.98
347.61 K, 54840 kPa, x1 = 0.7024	736.03
347.61 K, 59830 kPa, x1 = 0.7024	739.91
347.61 K, 64820 kPa, x1 = 0.7024	743.63
347.61 K, 69810 kPa, x1 = 0.7024	747.19
347.61 K, 74800 kPa, x1 = 0.7024	750.62
347.61 K, 79780 kPa, x1 = 0.7024	753.92
347.61 K, 84760 kPa, x1 = 0.7024	757.12
347.61 K, 89750 kPa, x1 = 0.7024	760.21
347.61 K, 94730 kPa, x1 = 0.7024	763.2
